Source: the METLIN SMRT retention time set (Domingo-Almenara et al. 2019)

Assay: gradient 5% acetonitrile 3 min, to 50% in 2 min, to 85% in 15 min, held 3 min, 100 µL/min
Conditions: column: Zorbax Extend-C18 2.1 x 50 mm; eluents: water / acetonitrile, 0.1% formic acid
In short: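 Data were gathered over 3 months by HPLC coupled to a quadrupole time-of-flight mass spectrometer, operated in positive and negative ionization mode. Mixtures of ~100 pure standards ran on a Zorbax Extend-C18 column (2.1 × 50 mm, 1.8 μm) at 100 μL/min, with water and acetonitrile each containing 0.1% formic acid and dead and dwell volumes of 40 μL and 900 μL. Retention time was read from adduct peaks picked by computer and checked manually.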

SMILES | RP-LC retention time
COc1ccc(CC(=O)Nc2cc(-c3cccnc3)no2)cc1 | 708 s
Cc1cc(C)cc(S(=O)(=O)N2CCC3(CC2)NCCN=C3NCc2ccc(F)cc2)c1 | 753 s
COc1cn2c(cc1=O)C(=O)N(CCNC(=O)C1c3ccccc3Oc3ccccc31)CC2 | 592 s
O=C(NCc1cccc(Br)c1)C1CCCN(c2ccc(N3CCOCC3)nn2)C1 (stereo not drawn) | 653 s
CC(=O)Nc1cccc(N2CC(C(=O)Nc3ccc(C)cc3Br)CC2=O)c1 (stereo not drawn) | 720 s
Cc1ccsc1C(=O)N1CCOc2ccc(N3CCOCC3)cc2C1 | 762 s
COc1ccc(NS(=O)(=O)c2ccc3c(c2)CCCC(=O)N3)cc1Cl | 738 s
CSc1ccc(NC(=O)N2CCC(c3nc(C(=O)N4CCOCC4)c(C)o3)CC2)cc1 | 726 s
O=C(Nc1cccc(F)c1)c1nnc(CCCC(=O)N2CCN(c3ccccn3)CC2)s1 | 646 s
O=C(c1ccc(-c2nccnc2N2CCCC2)cc1)N1CCN(c2ccccc2)CC1 | 942 s
Cc1ccc2nc(-c3cccc(Cl)c3)c(Nc3ccc4c(c3)OCO4)n2c1 | 746 s
COC1CCC12CCN(C(=O)c1ccco1)CC2 (stereo not drawn) | 735 s
CN1C(=O)c2cc(C(=O)NCCN3CCCCC3)nn2CC1(C)C(=O)NCc1ccccc1 (stereo not drawn) | 597 s
CCc1ccc(OCc2ccccc2C(=O)Nc2ccc3nc(C)cc(N)c3c2)cc1 | 838 s
COC(=O)c1ccc(Cn2nc(C3CC3)c3cnn(-c4cccc(Cl)c4)c3c2=O)cc1 | 1170 s
COc1ccc(OC)c(NC(=O)C(C)n2cnc3nc4c(cc3c2=O)CCCC4)c1 (stereo not drawn) | 755 s
c1ccc(-c2ccc(CNCCc3c[nH]c4ccccc34)o2)cc1 | 735 s
Cc1cc(C)c(C)c(S(=O)(=O)N2CC(=O)N(CC3CC3)CC23CCCC3)c1C | 1170 s
CCn1nc(C)c2ccnc(N3CCC(C(=O)N4CCN(c5ccc(Cl)cc5)CC4)CC3)c21 | 780 s
CC(C)CN(CC(C)C)c1nc(-c2ccccc2)nc2ccccc12 | 951 s
CC(C)(C)CC(=O)Nc1cnc(-c2ccc(Cl)cc2)nc1 | 1130 s
CCCCN1C(=O)C(C)(C(=O)NCc2ccccc2C)Oc2cccnc21 (stereo not drawn) | 1050 s

SMILES | RP-LC retention time
Cc1ccc(Cc2nc(-c3cccc(-c4ccn[nH]4)c3)no2)cc1 | 999 s
CN(C)C(=O)c1cc2c(s1)CCC(C(=O)N1CCN(c3ccccc3)CC1)C2 (stereo not drawn) | 735 s
CCn1cc(-c2ccc(C)cc2)cc1C(=O)N1CCOCC1 | 932 s
COc1ccc(C(=O)NCc2ccc3c(c2)ncn3C(C)C)cn1 | 597 s
CCOc1ccc(NC(=O)Nc2nccn(-c3ccc(Br)cc3)c2=O)cc1 | 1040 s
CCOc1ccccc1NC(=O)CSc1cc(N2CCN(c3ccccc3OC)CC2)ncn1 | 1160 s
COCC(=O)N(CC(=O)N1CCc2sccc2C1COc1cccc(OC)c1)C1CC1 (stereo not drawn) | 800 s
Cc1ccc(NC(=O)C2CCCN(c3ncnc4c3nc3n4CCCCC3)C2)cc1F (stereo not drawn) | 785 s
CCc1nc2cc(-c3noc(C4CC(=O)N(c5ccc(C)cc5)C4)n3)ccc2o1 (stereo not drawn) | 987 s
Cc1cnn(Cc2nc(-c3ccc(NC(=O)COc4ccccc4)cc3)oc2C)c1 | 869 s
CCC(=O)N(C)CCc1noc(-c2ccc(C(=O)NCCOC)cc2)n1 | 644 s
Cc1nsc2ncc(C(=O)N3CCOCC3)c(N3CCC(C(=O)Nc4ccc(F)cc4Cl)CC3)c12 | 811 s
COc1cccc2c(NC(=O)c3ccccc3F)cc(C)nc12 | 579 s
CC1CCN(S(=O)(=O)c2cc(-c3ccc(N4CCCC(C)C4)nn3)cs2)CC1 (stereo not drawn) | 915 s
CCN1C(=O)C2(CCN(S(=O)(=O)c3cc(F)ccc3C)CC2)c2ccccc21 | 1130 s
Cc1cc(N2CCCCC2)nc(N2CCN(C(=O)CC3CCCC3)CC2)n1 | 738 s
O=C(Nc1ccc2nncn2c1)c1ccc(Cl)cc1 | 719 s
CCc1nc2ccccc2c(=O)n1Cc1noc(-c2ccc(C#N)cc2)n1 | 919 s
COC(=O)c1cc(S(=O)(=O)N2CCCC2C(=O)Nc2ccccc2)cn1C (stereo not drawn) | 818 s
CCNC(=O)C1CCCN(c2nc3ncn(CC(=O)Nc4cc(C)cc(C)c4)c(=O)c3s2)C1 (stereo not drawn) | 716 s
Cc1cccc(NC(=O)N2CCN(c3cnn4c(C)nnc4c3)CC2)c1 | 627 s
CC(C)CCNC(=O)C1CCN(c2cncnc2N(C)C)CC1 | 564 s

SMILES | RP-LC retention time
CC(C)(C)NCCC(O)c1cc(C(F)(F)F)nc2c(C(F)(F)F)cccc12 (stereo not drawn) | 718 s
COc1cc(C(=O)N2CCCC2c2nc(-c3ccccc3Cl)no2)cc(OC)c1OC (stereo not drawn) | 906 s
CCC(C)NC(=O)c1cc(NC(C)=O)cc2nc(C)ccc12 (stereo not drawn) | 575 s
CN1CCN(CCNC(=O)C2CCN(c3nc4ccccc4n(C)c3=O)CC2)CC1 | 588 s
Cc1nnc(NC(=O)c2csc(Nc3ccc(OC(F)F)cc3)n2)s1 | 781 s
Cc1cc(C)c(S(=O)(=O)Nc2cccc(-c3cn4cccc(C)c4n3)c2)cc1C | 743 s
O=C(CN1CCCCC1c1nc(-c2ccc(F)cc2)no1)NCc1ccc(F)cc1 (stereo not drawn) | 1080 s
CN1CCN(c2nc3cc(C(F)(F)F)ccc3n3cccc23)CC1 | 768 s
CC(C)CC(=O)N1CCN(c2nc(CN3CCOCC3)cs2)CC1 | 590 s
COc1cc(OC)c(NC(=O)c2cc3c(=O)n(CC(C)C)ccc3n2C)cc1Cl | 924 s
COc1ccc(CNC(=O)C2(C)CCCN(S(=O)(=O)c3ccc(C)cc3)C2)cc1 (stereo not drawn) | 946 s
Cc1cc(N2CCCC2)n2nc(CN3CCC4(CC3)OCCO4)nc2n1 | 572 s
COc1cc([C@@H]2c3cc4c(cc3[C@H](O)[C@@H](CO)[C@@H]2C(=O)Nc2cccc(F)c2)OCO4)cc(OC)c1OC | 761 s
CC(C)Cn1nc(CNC(=O)CSc2ccncc2)c2ccccc21 | 632 s
COc1ccc(-c2noc(C3CCCN3C(=O)c3ccc(Cl)cc3)n2)cc1OC (stereo not drawn) | 959 s
Cc1nc2cc(-c3noc(-c4cc(Cl)ccc4Cl)n3)ccc2o1 | 1290 s
Cc1ccc(-c2nc(-c3ccc4nnc(C)n4c3)no2)cc1C | 1130 s
O=C(c1cc2c(s1)CCCC2)N1CCN(c2nnc3ccccn23)CC1 | 746 s
Cc1ccc(C)c(Sc2ccc(N3CCC(C(=O)NCCC4=CCCCC4)CC3)nn2)c1 | 1010 s
O=c1c2sccc2n(Cc2nc(-c3cccc(C(F)(F)F)c3)no2)c(=O)n1Cc1ccccc1 | 1190 s
O=C(NCCC1CCN(S(=O)(=O)c2ccc(F)cc2)CC1)NCc1ccc(F)cc1 | 852 s
O=C(CN1C(=O)CCCc2cc(S(=O)(=O)N3CCCCC3)ccc21)N1CCc2ccccc2C1 | 922 s

SMILES | RP-LC retention time
CCc1noc2nc(C)n(CC(=O)NCCCc3ccccc3)c(=O)c12 | 832 s
NC(=O)c1c([N+](=O)[O-])cc(C(F)(F)F)cc1[N+](=O)[O-] | 702 s
COc1ccc(-c2cnc(NC(=O)[C@H]3CCCCN3S(=O)(=O)c3ccc(C)cc3)s2)cc1 | 1270 s
COc1ccc(NC(=O)C2c3cc(OC)c(OC)cc3C(=O)N(C)C2c2cccnc2)cc1Cl (stereo not drawn) | 660 s
COCCc1noc(C2CN(S(=O)(=O)c3cccc(F)c3)C2)n1 | 784 s
O=C(Cn1c(=O)c(=O)n(Cc2ccc(Cl)cc2)c2ccccc21)N1CCN(c2ccccn2)CC1 | 654 s
CN1C(=O)[C@H]2CN(Cc3cccc(OC(F)(F)F)c3)C[C@H]2C1=O | 682 s
COc1ccc(OC)c(CNS(=O)(=O)c2cccc(-c3nc(-c4ccc(C)cc4)no3)c2)c1 | 1220 s
Cc1cc(C)cc(NC(=O)N2CCC(n3cnc4ccc(C)cc4c3=O)CC2)c1 | 838 s
CCCNc1cc(N2CCC(CCC(=O)NCc3ccc(F)cc3Cl)CC2)ncn1 | 727 s
CCc1ccc(NC(=O)c2cc3sc(Cl)cc3n2C)cc1 | 1210 s
COc1ccc(S(=O)(=O)N2CCCC(c3nnnn3-c3ccccc3)C2)cc1 (stereo not drawn) | 905 s
O=C(NCCC1CCN(C(=O)Nc2cc(F)cc(F)c2)CC1)c1ccco1 | 798 s
CCOCc1nc(C2CCCN2S(=O)(=O)c2ccc3c(c2)CCC3)no1 (stereo not drawn) | 1020 s
Cc1ccc(CNC(=O)C2(C)Cn3nc(C(=O)NCc4ccc(F)cc4)cc3C(=O)N2C)cc1 (stereo not drawn) | 783 s
O=C(NCCCN1CCCC1=O)c1c(OCC2CC2)cc(=O)n2c1CCCCC2 | 602 s
O=C(O)c1ccc(CCCc2ccc(OCCc3ccc(F)cc3)cc2)o1 | 1090 s
COC(=O)c1ncn2c1C(=O)N(c1cccc(C)c1)C(C)(C(=O)NCc1ccc(C)cc1)C2 (stereo not drawn) | 734 s
COc1ccc(-c2n[nH]c3c2C(c2cccc(O)c2)NC3=O)cc1 (stereo not drawn) | 654 s
CN(Cc1ccccc1)C(=O)C1(c2ccc(NC(=O)C3CC3)cc2)CCCCC1 | 1060 s
Cc1ccc(-c2cn3cccnc3n2)cc1NC(=O)c1ccc(C(C)(C)C)cc1 | 816 s
O=C1Nc2ccc(Br)cc2/C1=C/C(=O)c1ccccc1 | 964 s
